EC50 data for 58 compounds are collected here from patent US9914706B2, “N-substituted pyrazolyl guanidine F1F0-ATPase inhibitors and therapeutic uses thereof” (Lycera Corporation, priority 2013, dated 2018).

Each structure is given as a SMILES string.

For the first test, the system named is Ramos cells. The test can be described thus: Cytotoxicity in Ramos cells. The test is classed as cell-based. The settings on record: Homo sapiens, read-out: Ramos Cell EC50. The procedure: Exemplary compounds described in above Examples were tested for activity against F1F0-ATPase by measuring the ability of the compounds to inhibit ATP synthesis. In addition, the compounds were assessed for cytotoxicity in Ramos cells. Inhibition of F1F0-ATPase activity in synthesizing ATP and cytotoxicity in Ramos cells were measured according to the procedures described in K. M. Johnson et al. Chemistry & Biology 2005, 12, 485-496.
For `O=C(/N=C(/Nc1cc(F)cc(Cl)c1)Nc1cc(C(F)(F)F)nn1-c1cc(O)cc(O)c1)c1ccc(F)c(F)c1` [Compound A-35], the EC50 was less than 10 µM.
For `O=C(/N=C(/Nc1cc(F)cc(Cl)c1)Nc1cc(C(F)(F)F)nn1-c1ccc(F)cc1)c1ccc(Cl)cc1` [Compound A-16], the EC50 is less than 10 µM.
Turning to `O=C(/N=C(/Nc1cccc(Cl)c1)Nc1cc(C(F)(F)F)nn1-c1ccccc1)c1ccc(Cl)cc1` [Compound A-14], the EC50 was less than 10 µM.
Same read-out and setting: the result for `O=C(/N=C(/Nc1cccc(C(F)(F)F)c1)Nc1cc(C(F)(F)F)nn1-c1ccccc1)c1ccc(Cl)cc1` [Compound A-15] reads less than 10 µM.
As to `O=C(/N=C(/Nc1cccc(Cl)c1)Nc1cc(C(F)(F)F)nn1C1CCCC1)c1ccc(Cl)cc1` [Compound A-53], the EC50 was less than 10 µM.
Turning to `O=C(/N=C(/Nc1cc(F)cc(Cl)c1)Nc1cc(C(F)(F)F)nn1CC(O)CO)c1cccc(Cl)c1` (single isomer, unassigned) [Compound A-10], the EC50 was less than 10 µM.
`Cc1c(C(F)(F)F)nn(-c2ccc(F)cc2)c1N/C(=N\C(=O)c1cccc(Cl)c1)Nc1cc(F)cc(Cl)c1` [Compound A-23]: the EC50 was less than 10 µM.
For `N#Cc1cccc(C(=O)/N=C(/Nc2cc(F)cc(Cl)c2)Nc2cc(C(F)(F)F)nn2C2CCCC2)c1` [Compound A-54], the EC50 is less than 10 µM.
As to `O=C(/N=C(/Nc1cc(F)cc(Cl)c1)Nc1cc(C(F)(F)F)nn1-c1cccc(Cl)c1)c1cccc(Cl)c1` [Compound A-20], the EC50 was less than 10 µM.
Still for that read-out and setting: for `Cc1cc(Cl)ccc1C(=O)/N=C(/Nc1cc(F)cc(Cl)c1)Nc1cc(C(F)(F)F)nn1C1CCCC1` [Compound A-41] the value was less than 10 µM.
On the same count and under the same terms, for `O=C(/N=C(/Nc1cc(F)cc(Cl)c1)Nc1cc(C(F)(F)F)nn1C1CCCC1)c1ccccc1Cl` [Compound A-56] the value was less than 10 µM.
With `N#CCCn1nc(C(F)(F)F)cc1N/C(=N\C(=O)c1ccc(C(F)(F)F)cc1)Nc1cc(F)cc(Cl)c1` [Compound A-2], the EC50 is less than 10 µM.
For the compound `O=C(/N=C(/Nc1cc(F)cc(Cl)c1)Nc1cc(C(F)(F)F)nn1C1CCCC1)c1cc(F)c(Cl)cc1Cl` [Compound A-39], the EC50 was less than 10 µM.
Consider `NC(=O)Cn1nc(C(F)(F)F)cc1N/C(=N\C(=O)c1ccc(C(F)(F)F)cc1)Nc1cc(F)cc(Cl)c1` [Compound A-6], for which the half-maximal effective concentration (EC50) is less than 10 µM.
Consider `Cc1c(C(F)(F)F)nn(-c2ccc(F)cc2)c1N/C(=N\C(=O)c1ccc(F)c(F)c1)Nc1cccc(Cl)c1F` [Compound A-25], for which the EC50 was less than 10 µM.
As for `O=C(/N=C(/Nc1cc(F)cc(Cl)c1)Nc1cc(C(F)(F)F)nn1-c1ccc(F)cc1)c1cccc(Cl)c1` [Compound A-19], the EC50 is less than 10 µM.
Take `COc1cc(OC)cc(-n2nc(C(F)(F)F)cc2N/C(=N\C(=O)c2ccc(F)c(F)c2)Nc2cc(F)cc(Cl)c2)c1` [Compound A-31]: the EC50 is less than 10 µM.
In the case of `CS(=O)(=O)N1CCC(n2nc(C(F)(F)F)cc2N/C(=N\C(=O)c2cccc(Cl)c2)Nc2cc(F)cc(Cl)c2)CC1` [Compound A-37], the EC50 was less than 10 µM.
Regarding `O=C(/N=C(/Nc1cc(F)cc(Cl)c1)Nc1cc(C(F)(F)F)nn1C1CCCCC1)c1ccc(F)c(F)c1` [Compound A-28], the EC50 is less than 10 µM.
Same read-out and setting: the result for `O=C(/N=C(/Nc1cc(F)cc(Cl)c1)Nc1cc(C(F)(F)F)nn1C1CCCC1)c1c(F)cccc1F` [Compound A-48] reads less than 10 µM.
For the compound `O=C(/N=C(/Nc1cc(F)cc(Cl)c1)Nc1cc(C(F)(F)F)nn1-c1ccccc1)c1ccc(Cl)cc1` [Compound A-13], the EC50 is less than 10 µM.
On the same count and under the same terms, the result for `O=C(/N=C(/Nc1cccc(Cl)c1)Nc1cc(C(F)(F)F)nn1C1CCCC1)c1ccccc1Cl` [Compound A-57] reads less than 10 µM; that for `O=C(/N=C(/Nc1cc(F)cc(Cl)c1)Nc1cc(C(F)(F)F)nn1C1CCCC1)c1ccc(Cl)cc1Cl` [Compound A-46], less than 10 µM; that for `O=C(/N=C(/Nc1cc(F)cc(Cl)c1)Nc1cc(C(F)(F)F)nn1C1CCCC1)c1ccc(Cl)c(F)c1` [Compound A-45], less than 10 µM.
The same measure, in the same setting: the result for `C=CCn1nc(C(F)(F)F)cc1N/C(=N\C(=O)c1cccc(Cl)c1)Nc1cc(F)cc(Cl)c1` [Compound A-12] reads less than 10 µM; that for `O=C(/N=C(/Nc1cc(F)cc(Cl)c1)Nc1cc(C(F)(F)F)nn1CCO)c1ccc(C(F)(F)F)cc1` [Compound A-1], less than 10 µM; that for `N#Cc1ccc(C(=O)/N=C(/Nc2cc(F)cc(Cl)c2)Nc2cc(C(F)(F)F)nn2C2CCCC2)cc1` [Compound A-51], less than 10 µM.
For the compound `N#Cc1ccc(C(=O)/N=C(/Nc2cccc(Cl)c2)Nc2cc(C(F)(F)F)nn2C2CCCC2)cc1` [Compound A-52], the EC50 was less than 10 µM.
The same measure, in the same setting: the result for `COC(=O)N1CCC(n2nc(C(F)(F)F)cc2N/C(=N\C(=O)c2cccc(Cl)c2)Nc2cc(F)cc(Cl)c2)CC1` [Compound A-38] reads less than 10 µM; that for `O=C(/N=C(/Nc1cc(F)cc(Cl)c1)Nc1cc(C(F)(F)F)nn1C1CCCC1)c1cccc(Cl)c1F` [Compound A-44], less than 10 µM.
The same measure, in the same setting: the result for `O=C(/N=C(/Nc1cc(F)cc(Cl)c1)Nc1cc(C(F)(F)F)nn1C1CCOCC1)c1cccc(Cl)c1` [Compound A-36] reads less than 10 µM.
Regarding `O=C(/N=C(/Nc1cc(F)cc(Cl)c1)Nc1ccnn1-c1ccccc1)c1ccc(F)c(F)c1` [Compound A-30], the EC50 is less than 10 µM.
Regarding `O=C(/N=C(/Nc1cc(F)cc(Cl)c1)Nc1cc(C(F)(F)F)nn1-c1cccnc1)c1cccc(Cl)c1` [Compound A-32], the EC50 is less than 10 µM.
On the same count and under the same terms, the result for `Cc1cc(F)ccc1C(=O)/N=C(/Nc1cc(F)cc(Cl)c1)Nc1cc(C(F)(F)F)nn1C1CCCC1` [Compound A-47] reads less than 10 µM.
On the same count and under the same terms, for `O=C(O)Cn1nc(C(F)(F)F)cc1N/C(=N\C(=O)c1ccc(C(F)(F)F)cc1)Nc1cc(F)cc(Cl)c1` [Compound A-5] the value was less than 10 µM; for `O=C(/N=C(/Nc1cccc(Cl)c1)Nc1cc(C(F)(F)F)nn1-c1ccc(F)cc1)c1ccc(Cl)cc1` [Compound A-17], less than 10 µM; for `COc1cccc(C(=O)/N=C(/Nc2cc(F)cc(Cl)c2)Nc2cc(C(F)(F)F)nn2C2CCCC2)c1` [Compound A-49], less than 10 µM.
Still for that read-out and setting: for `Cc1c(C(F)(F)F)nn(-c2ccc(F)cc2)c1N/C(=N\C(=O)c1ccc(C(F)(F)F)cc1)Nc1cc(F)cc(Cl)c1` [Compound A-24] the value was less than 10 µM; for `O=C(/N=C(/Nc1cc(F)cc(Cl)c1)Nc1cc(C(F)(F)F)nn1C1CCCC1)c1ccc(F)c(F)c1` [Compound A-33], less than 10 µM; for `O=C(/N=C(/Nc1cc(F)cc(Cl)c1)Nc1cc(C(F)(F)F)nn1C1CCCC1)c1cccc(Cl)c1` [Compound A-26], less than 10 µM.
Consider `COc1ccc(C(=O)/N=C(/Nc2cccc(Cl)c2)Nc2cc(C(F)(F)F)nn2CCO)cc1` [Compound A-8], for which the EC50 was less than 10 µM.
With `O=C(/N=C(/Nc1cc(F)cc(Cl)c1)Nc1cc(C(F)(F)F)nn1-c1cccc(Cl)c1)c1ccc(C(F)(F)F)cc1` [Compound A-21], the EC50 is less than 10 µM.
As for `CC(O)Cn1nc(C(F)(F)F)cc1N/C(=N\C(=O)c1ccc(C(F)(F)F)cc1)Nc1cc(F)cc(Cl)c1` (stereo not shown) [Compound A-3], the EC50 was less than 10 µM.
Still for that read-out and setting: the result for `Cc1c(Cl)cccc1C(=O)/N=C(/Nc1cc(F)cc(Cl)c1)Nc1cc(C(F)(F)F)nn1C1CCCC1` [Compound A-43] reads less than 10 µM; that for `COc1cc(O)cc(-n2nc(C(F)(F)F)cc2N/C(=N\C(=O)c2ccc(F)c(F)c2)Nc2cc(F)cc(Cl)c2)c1` [Compound A-34], less than 10 µM; that for `O=C(/N=C(/Nc1cc(F)cc(Cl)c1)Nc1cc(C(F)(F)F)nn1C1CCCC1)c1cccc(F)c1` [Compound A-50], less than 10 µM.
On the same count and under the same terms, for `O=C(N=C(Nc1cc(F)cc(Cl)c1)Nc1cc(C(F)(F)F)nn1C1CCCC1)c1ccc(Cl)cc1` [Compound A-58, 4-chloro-N-(((3-chloro-5-fluorophenyl)amino)((1-cyclopentyl-3-(trifluoromethyl)-1H-pyrazol-5-yl)amino)methylene)benzamide] the value was less than 10 µM; for `COc1ccc(C(=O)/N=C(/Nc2cccc(C(F)(F)F)c2)Nc2cc(C(F)(F)F)nn2CCO)cc1` [Compound A-9], less than 10 µM.
With `N#Cc1cccc(C(=O)/N=C(/Nc2cccc(Cl)c2)Nc2cc(C(F)(F)F)nn2C2CCCC2)c1` [Compound A-55], the EC50 is less than 10 µM.
Still for that read-out and setting: the result for `O=C(/N=C(/Nc1cc(F)cc(Cl)c1)Nc1cc(C(F)(F)F)nn1C1CCCC1)c1ccc(Cl)cc1F` [Compound A-42] reads less than 10 µM; that for `CCOC(=O)Cn1nc(C(F)(F)F)cc1N/C(=N\C(=O)c1ccc(C(F)(F)F)cc1)Nc1cc(F)cc(Cl)c1` [Compound A-4], less than 10 µM; that for `O=C(/N=C(/Nc1cc(F)cc(Cl)c1)Nc1cc(C(F)(F)F)nn1C1CCCCC1)c1cccc(Cl)c1` [Compound A-27], less than 10 µM.
`O=C(/N=C(/Nc1cccc(C(F)(F)F)c1)Nc1cc(C(F)(F)F)nn1-c1ccc(F)cc1)c1ccc(Cl)cc1` [Compound A-18]: the EC50 is less than 10 µM.
Still for that read-out and setting: for `O=C(/N=C(/Nc1cc(F)cc(Cl)c1)Nc1cc(C(F)(F)F)nn1C1CCCC1)c1cc(F)c(Cl)cc1F` [Compound A-40] the value was less than 10 µM.
The same measure, in the same setting: the result for `Cc1c(C(F)(F)F)nn(CCO)c1N/C(=N\C(=O)c1ccc(C(F)(F)F)cc1)Nc1cc(F)cc(Cl)c1` [Compound A-7] reads less than 10 µM.
For `O=C(/N=C(/Nc1cc(F)cc(Cl)c1)Nc1ccnn1-c1ccccc1)c1cccc(Cl)c1` [Compound A-29], the EC50 is less than 10 µM.
Consider `O=C(/N=C(/Nc1cccc(Cl)c1F)Nc1cc(C(F)(F)F)nn1-c1cccc(Cl)c1)c1ccc(F)c(F)c1` [Compound A-22], for which the EC50 was less than 10 µM.

The test is the same for the next values; noted with them: read-out: Ramos Cell EC50.
Consider `O=C(/N=C(/Nc1cc(F)cc(Cl)c1)Nc1cc(C(F)(F)F)nn1CC(O)CO)c1cccc(Cl)c1` (single isomer, unassigned) [Compound A-11], for which the EC50 is less than 10 µM.
